Results on eight molecules are retold here after patent publication US7569594B2, “Analogs of leucascandrolide A” (The University of Chicago, priority 2005, dated 2009).

In one test the test system is Yeast. Put plainly: Yeast activity. In kind it is cell-based.
Test [1] deals with A549, PC3 and HCT116 cells. As to the kind of experiment: Cell Growth/Viability Assays (CellTiter-Glo). Format: cell-based. The conditions noted are these: Homo sapiens; 48 h incubation; cancer cells. How it is done:
Cell Growth/Viability Assays. All assays were performed using at least three replicate wells for each compound concentration tested. Cells were seeded in 96-well white plates at the density of 1000 cells/well in 100 μL of the appropriate cell culture media. Adherent A549, PC3 and HCT116 cells were allowed to attach and grow for 24 h and then treated with 30 μL of the solution of a compound and incubated further for 48 h. After incubation, cell viability was determined using a luminescence-based commercial kit (CellTiter-Glo, Promega) and luminescence was analyzed using a Wallac Victor III plate reader. Compound concentration that gave 50% reduction in cell viability when compared with untreated control cells was calculated from sigmoidal plots of cell viability versus drug concentration. To measure cell growth inhibition, similar viability assays were performed twice: at 0 h and after 48 h incubation. And then change in number of viable cells was measured and calculated from sigmoidal plots.
Biological Activity—Using methods similar to that described above, the following compounds were tested.
(In general: ATP-based viability assays read luminescence as a measure of living cells.)

The test system of test [2] is HCT-116 colon cancer cells. As to conditions: HCT-116 cells; cited from earlier work.
Test [3] deals with W303 strain of yeast S. cerevisiae. The conditions noted are these: 11.2 mg per disk; cited from earlier work.
For test [4], the system named is human A549 non-small lung caner cells. The conditions noted are these: cited from earlier work.

A word on the GI50: it is the concentration that inhibits growth by half. For `COC(=O)NC/C=C\c1nc(CC/C=C\C(=O)O[C@@H]2CC3CC(=O)O[C@H](/C=C/CC(C)C)CC4CCCC(C[C@H](OC)CC(C2)O3)O4)co1` (some centres unmarked), in the test on Yeast, the “Yeast: Active/Inactive” value is given as “Yeast: Active”. The same molecule had a GI50 in test [1] of 10 to 100 nM.

Regarding `COC(=O)NC/C=C\c1nc(CC/C=C\C(=O)O[C@H]2CC3CC(=O)O[C@@H](CCCC(C)C)CC4CCCC(C[C@@H](OC)CC(C2)O3)O4)co1` (mixture of isomers) [racemic JJ-2-96], the “Yeast: Active/Inactive” value in the test with Yeast was “Yeast: Active”. In addition, in test [1], the 50% growth inhibitory concentration (GI50) lay in the range of 1 to 10 nM.

Turning to `CCCCC[C@H]1CC2CCCC(C[C@@H](OC)CC3C[C@@H](OC(=O)/C=C\CCc4coc(/C=C\CNC(=O)OC)n4)CC(CC(=O)O1)O3)O2` (mixture of isomers) [racemic JJ-2-173], the “Yeast: Active/Inactive” value in the test on Yeast is on record as “Yeast: Active”. In test [1], this molecule showed a GI50 of 1 to 10 nM.

Consider `COC(=O)NC/C=C\c1nc(CC/C=C\C(=O)O[C@H]2CC3CC(=O)O[C@@H](CCCCCO)CC4CCCC(C[C@@H](OC)CC(C2)O3)O4)co1` (mixture of isomers) [racemic JJ-2-194], for which the “Yeast: Active/Inactive” value in the test with Yeast is on record as “Yeast: Inactive”. In test [1], the GI50 fell in the range of 10 to 100 nM.

With `C#CCCCCCCCC[C@H]1CC2CCCC(C[C@@H](OC)CC3C[C@@H](OC(=O)/C=C\CCc4coc(/C=C\CNC(=O)OC)n4)CC(CC(=O)O1)O3)O2` (mixture of isomers) [racemic JJ-2-286], the “Yeast: Active/Inactive” value in the test with Yeast is “Yeast: Active”. This molecule also yielded a GI50 in test [1] of 1 to 10 nM.

Regarding `COC(=O)NC/C=C\c1nc(CC/C=C\C(=O)O[C@H]2CC3CC(=O)O[C@@H](CCCCCCCCc4cn(CCCNC(=O)OC(C)(C)C)nn4)CC4CCCC(C[C@@H](OC)CC(C2)O3)O4)co1` (mixture of isomers) [racemic JJ-2-288], the “Yeast: Active/Inactive” value in the test with Yeast was “Yeast: Active”. Besides, the 50% growth inhibitory concentration (GI50) in test [1] is 10 to 100 nM.

Take `COC(=O)NC/C=C\c1nc(CC/C=C\C(=O)O[C@H]2CC3CC(=O)O[C@@H](/C=C/CC(C)C)CC4CCCC(C[C@@H](OC)CC(C2)O3)O4)co1` (single isomer, unassigned; (+)) [(+)-JJ-2-37]: the “Yeast: Active/Inactive” value in the test on Yeast is listed as “Yeas: Active”. The molecule also displayed a 50% growth inhibitory concentration (GI50) in test [1] of 1 to 10 nM.

Regarding `COC(=O)NC/C=C\c1nc(CC/C=C\C(=O)OC2CC3CC(=O)O[C@H](/C=C/CC(C)C)C[C@H]4CCC(C)C(C[C@H](OC)CC(C2)O3)O4)co1` (some centres unmarked) [Leucascandrolide A], the values for the GI50 in test [2] and in test [4] were 0.87 nM and 0.93 nM, respectively. Also, the “inhibition diameter per disk” value in test [3] is on record as 33 mm.
